As a reminder, the IC50 is the concentration at which inhibition is half-maximal.

SMILES strings stand for the structures.

What all share (test): five-probe cocktail in human liver microsomes, LC-MS/MS of metabolites
Type in all cases: biochemical
(In general: Liver microsomes are vesicles of endoplasmic reticulum, rich in cytochrome P450 enzymes.)

The target of one data set is T1, CYP2C9 (Homo sapiens, UniProt P11712).
T1 construct: native enzyme in pooled human liver microsomes (BD Gentest); activity read by tolbutamide 4-hydroxylation
T1 sequence (P11712 whole entry): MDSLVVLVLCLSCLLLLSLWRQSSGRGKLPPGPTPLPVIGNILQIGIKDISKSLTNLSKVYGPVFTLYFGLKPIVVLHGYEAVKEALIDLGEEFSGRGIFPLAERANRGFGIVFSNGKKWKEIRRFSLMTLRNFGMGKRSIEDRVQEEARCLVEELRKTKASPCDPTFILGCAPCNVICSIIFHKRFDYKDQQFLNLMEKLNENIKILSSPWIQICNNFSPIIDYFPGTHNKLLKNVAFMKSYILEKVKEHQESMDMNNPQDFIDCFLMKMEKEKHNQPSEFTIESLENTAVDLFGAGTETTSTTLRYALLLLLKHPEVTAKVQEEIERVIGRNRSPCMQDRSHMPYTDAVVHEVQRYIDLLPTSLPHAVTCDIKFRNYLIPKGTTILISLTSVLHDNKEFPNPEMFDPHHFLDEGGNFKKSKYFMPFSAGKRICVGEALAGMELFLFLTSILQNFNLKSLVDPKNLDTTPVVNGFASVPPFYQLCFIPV
The settings on record: tolbutamide 4-hydroxylation, printed 100 mM tolbutamide (unit as printed), 1 mM NADPH, 3.3 mM MgCl2, pH 7.4, 37°C, 30 min; b29 prints 68.91; Table 2 prints vinpocetine in μg/mL, methods in μM. From the text: five-probe cocktail in human liver microsomes, LC-MS/MS of metabolites on CYP2C9

The target of another data set is T2, CYP2C19 (Homo sapiens, UniProt P33261).
T2 construct: native enzyme in pooled human liver microsomes (BD Gentest); activity read by omeprazole 5-hydroxylation
T2 sequence (P33261 whole entry): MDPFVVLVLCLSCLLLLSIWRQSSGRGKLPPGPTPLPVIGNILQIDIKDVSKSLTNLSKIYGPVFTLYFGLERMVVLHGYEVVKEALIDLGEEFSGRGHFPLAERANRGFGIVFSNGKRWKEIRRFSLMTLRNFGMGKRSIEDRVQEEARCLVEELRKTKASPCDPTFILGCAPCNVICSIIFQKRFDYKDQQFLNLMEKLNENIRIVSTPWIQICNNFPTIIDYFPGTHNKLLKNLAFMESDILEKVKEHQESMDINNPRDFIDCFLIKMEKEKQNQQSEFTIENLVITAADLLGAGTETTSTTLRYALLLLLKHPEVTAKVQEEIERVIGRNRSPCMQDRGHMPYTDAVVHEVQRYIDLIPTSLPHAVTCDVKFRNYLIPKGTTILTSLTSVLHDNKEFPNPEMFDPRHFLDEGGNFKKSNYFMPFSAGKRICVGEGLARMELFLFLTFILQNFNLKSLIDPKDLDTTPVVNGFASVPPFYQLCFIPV
The settings on record: omeprazole 5-hydroxylation, printed 50 mM omeprazole (unit as printed), 1 mM NADPH, pH 7.4, 37°C; unreliable (extrapolated above top concentration 100 μM; text says > 100 μM). From the text:
five-probe cocktail in human liver microsomes, LC-MS/MS of metabolites on CYP2C19

For the next data set, the target named is T3, CYP2D6 (Homo sapiens, UniProt P10635).
T3 construct: native enzyme in pooled human liver microsomes (BD Gentest); activity read by dextrorphan formation from dextromethorphan
T3 sequence (P10635 whole entry): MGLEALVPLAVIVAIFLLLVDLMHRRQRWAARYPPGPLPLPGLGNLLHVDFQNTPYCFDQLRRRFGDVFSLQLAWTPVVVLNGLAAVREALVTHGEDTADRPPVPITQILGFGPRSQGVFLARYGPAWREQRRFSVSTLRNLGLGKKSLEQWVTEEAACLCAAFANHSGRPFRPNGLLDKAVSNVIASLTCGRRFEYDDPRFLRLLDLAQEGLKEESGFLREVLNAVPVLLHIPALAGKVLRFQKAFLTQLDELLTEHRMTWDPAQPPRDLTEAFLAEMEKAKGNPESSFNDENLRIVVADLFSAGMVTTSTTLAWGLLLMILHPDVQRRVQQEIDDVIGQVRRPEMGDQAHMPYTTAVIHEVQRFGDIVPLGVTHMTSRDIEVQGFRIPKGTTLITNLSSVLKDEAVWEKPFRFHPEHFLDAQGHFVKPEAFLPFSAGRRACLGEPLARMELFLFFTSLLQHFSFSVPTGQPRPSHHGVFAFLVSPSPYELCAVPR
As to conditions: dextrorphan formation, printed 5 mM dextromethorphan (unit as printed), 1 mM NADPH, pH 7.4, 37°C; unreliable (extrapolated above top concentration 100 μM; text says > 100 μM). An excerpt: five-probe cocktail in human liver microsomes, LC-MS/MS of metabolites on CYP2D6

Another data set has as its target T4, CYP3A4 (Homo sapiens, UniProt P08684).
T4 construct: native enzyme in pooled human liver microsomes (BD Gentest); activity read by testosterone 6beta-hydroxylation (CYP3A5 may contribute)
As to conditions: testosterone 6β-hydroxylation, printed 50 mM testosterone (unit as printed), otherwise as row above; unreliable (extrapolated above top concentration 100 μM; text says > 100 μM). An excerpt: five-probe cocktail in human liver microsomes, LC-MS/MS of metabolites on CYP3A4

A further data set deals with T5, CYP2E1 (Homo sapiens, UniProt P05181).
T5 construct: native enzyme in pooled human liver microsomes (BD Gentest); activity read by chlorzoxazone 6-hydroxylation
T5 sequence (P05181 whole entry): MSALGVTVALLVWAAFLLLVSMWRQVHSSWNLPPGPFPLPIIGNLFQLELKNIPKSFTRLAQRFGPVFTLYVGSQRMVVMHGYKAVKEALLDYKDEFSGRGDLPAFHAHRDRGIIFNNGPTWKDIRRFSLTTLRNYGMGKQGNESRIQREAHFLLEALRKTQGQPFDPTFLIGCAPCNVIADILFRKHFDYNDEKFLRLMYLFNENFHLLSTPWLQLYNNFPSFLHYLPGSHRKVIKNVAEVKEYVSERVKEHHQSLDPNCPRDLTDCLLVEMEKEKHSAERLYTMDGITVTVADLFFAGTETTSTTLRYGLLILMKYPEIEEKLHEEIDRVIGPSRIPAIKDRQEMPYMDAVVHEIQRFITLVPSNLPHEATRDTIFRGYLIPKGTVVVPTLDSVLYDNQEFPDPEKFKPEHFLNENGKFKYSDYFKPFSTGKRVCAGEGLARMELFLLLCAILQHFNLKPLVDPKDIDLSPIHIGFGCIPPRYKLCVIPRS
As to conditions: chlorzoxazone 6-hydroxylation, printed 50 mM chlorzoxazone (unit as printed), 1 mM NADPH, pH 7.4, 37°C; unreliable (extrapolated above top concentration 100 μM; text says > 100 μM). From the text:
five-probe cocktail in human liver microsomes, LC-MS/MS of metabolites on CYP2E1

T4 sequence (P08684 2-503): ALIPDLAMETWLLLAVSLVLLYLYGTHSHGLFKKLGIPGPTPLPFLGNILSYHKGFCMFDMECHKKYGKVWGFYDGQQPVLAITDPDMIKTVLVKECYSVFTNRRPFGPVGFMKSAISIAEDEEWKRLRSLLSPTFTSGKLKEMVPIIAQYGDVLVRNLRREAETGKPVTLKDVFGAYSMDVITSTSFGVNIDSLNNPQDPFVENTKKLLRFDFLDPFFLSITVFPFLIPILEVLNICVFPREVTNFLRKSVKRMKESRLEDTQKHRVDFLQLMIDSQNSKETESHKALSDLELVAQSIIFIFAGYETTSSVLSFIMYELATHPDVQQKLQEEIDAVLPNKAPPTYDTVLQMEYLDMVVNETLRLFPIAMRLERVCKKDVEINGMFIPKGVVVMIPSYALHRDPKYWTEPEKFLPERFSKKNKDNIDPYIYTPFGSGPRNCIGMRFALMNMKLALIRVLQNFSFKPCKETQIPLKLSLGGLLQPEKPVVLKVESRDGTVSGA

`CCOC(=O)C1=C[C@]2(CC)CCCN3CCc4c(n1c1ccccc41)[C@@H]32` [Vinpocetine, ethyl (3α,16α)-eburnamenine-14-carboxylate]: the “IC50 (μM)” value at CYP2C9 is 68.96 [95% CI: 49.14–96.79] μM. For the same compound, the “IC50” value at CYP2C19 was 285.1 µM; at CYP2D6, 104.4 µM; on CYP3A4, 107.1 µM; on CYP2E1, 2837 µM.

The record behind these values is publication PMC4783567, “The Effect of Vinpocetine on Human Cytochrome P450 Isoenzymes by Using a Cocktail Method” (Evidence-based Complementary and Alternative Medicine : eCAM, 2016).
